Results reported in patent publication US11826351B2, “Compounds useful as kinase inhibitors” (Loxo Oncology, Inc., priority 2015, dated 2023).
pIC50: −log10 of the molar value.

Assays:
[1] = target: T1, Recombinant BTK^C481S kinase (Homo sapiens, UniProt Q06187, C481S); experiment: BTK C481S binding affinity (LanthaScreen TR-FRET); conditions: Kinase Tracer 236, 5 h incubation
T1 construct: purchased SignalChem
How it was run: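 BTK C481S tracer-displacement TR-FRET: 5 nM His-tagged kinase, 2 nM Eu anti-His antibody and 30 nM Kinase Tracer 236 incubated with titrated inhibitor for 5 h in Kinase Buffer A. Read at 340 nm excitation, 615/665 nm emission; IC50 from variable-slope log[inhibitor]–response fit.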

[2] = target: T2, Recombinant BTK^WT kinase (Homo sapiens, UniProt Q06187); experiment: BTK WT binding affinity (LanthaScreen TR-FRET); conditions: Kinase Tracer 236, 5 h incubation
T2 construct: purchased Invitrogen
How it was run: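 Tracer-displacement TR-FRET: 2.5 nM recombinant BTK^WT, 2 nM Eu anti-His antibody and 15 nM Kinase Tracer 236 incubated with varying inhibitor concentrations for 5 h in Kinase Buffer A. Signal read at 340 nm excitation, 615/665 nm emission; IC50 from variable-slope log[inhibitor]–response fit.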

Recombinant EGFR = target: T3, Recombinant EGFR (Homo sapiens, UniProt P00533); experiment: EGFR binding affinity (LanthaScreen TR-FRET); conditions: Kinase Tracer 199, 5 h incubation
T3 construct: purchased Invitrogen
How it was run: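 TR-FRET binding (LanthaScreen) with recombinant EGFR; signal measured across a compound concentration range. IC50 obtained by fitting RFU against log[inhibitor] to a variable-slope model.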

[3] = tested on: OCI-Ly10 human DLBCL cells; experiment: OCI-Ly10 anti-proliferative activity (Resazurin); format: cell-based; conditions: Homo sapiens, OCI-Ly10, 72 h, OCI-Ly10 cells, 72 h compound treatment, Resazurin; read-out: Proliferation Assay OCI-Ly10-20% FBS
How it was run: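 OCI-Ly10 human DLBCL cells, whose growth depends on NFκB signalling, were seeded at 7.5×10^3 cells per well in 96-well plates with a range of compound concentrations and kept at 37° C for 72 h. Resazurin was then added, and after 5 h fluorescence was read at 590 nm.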

T3 sequence (P00533 25-1210): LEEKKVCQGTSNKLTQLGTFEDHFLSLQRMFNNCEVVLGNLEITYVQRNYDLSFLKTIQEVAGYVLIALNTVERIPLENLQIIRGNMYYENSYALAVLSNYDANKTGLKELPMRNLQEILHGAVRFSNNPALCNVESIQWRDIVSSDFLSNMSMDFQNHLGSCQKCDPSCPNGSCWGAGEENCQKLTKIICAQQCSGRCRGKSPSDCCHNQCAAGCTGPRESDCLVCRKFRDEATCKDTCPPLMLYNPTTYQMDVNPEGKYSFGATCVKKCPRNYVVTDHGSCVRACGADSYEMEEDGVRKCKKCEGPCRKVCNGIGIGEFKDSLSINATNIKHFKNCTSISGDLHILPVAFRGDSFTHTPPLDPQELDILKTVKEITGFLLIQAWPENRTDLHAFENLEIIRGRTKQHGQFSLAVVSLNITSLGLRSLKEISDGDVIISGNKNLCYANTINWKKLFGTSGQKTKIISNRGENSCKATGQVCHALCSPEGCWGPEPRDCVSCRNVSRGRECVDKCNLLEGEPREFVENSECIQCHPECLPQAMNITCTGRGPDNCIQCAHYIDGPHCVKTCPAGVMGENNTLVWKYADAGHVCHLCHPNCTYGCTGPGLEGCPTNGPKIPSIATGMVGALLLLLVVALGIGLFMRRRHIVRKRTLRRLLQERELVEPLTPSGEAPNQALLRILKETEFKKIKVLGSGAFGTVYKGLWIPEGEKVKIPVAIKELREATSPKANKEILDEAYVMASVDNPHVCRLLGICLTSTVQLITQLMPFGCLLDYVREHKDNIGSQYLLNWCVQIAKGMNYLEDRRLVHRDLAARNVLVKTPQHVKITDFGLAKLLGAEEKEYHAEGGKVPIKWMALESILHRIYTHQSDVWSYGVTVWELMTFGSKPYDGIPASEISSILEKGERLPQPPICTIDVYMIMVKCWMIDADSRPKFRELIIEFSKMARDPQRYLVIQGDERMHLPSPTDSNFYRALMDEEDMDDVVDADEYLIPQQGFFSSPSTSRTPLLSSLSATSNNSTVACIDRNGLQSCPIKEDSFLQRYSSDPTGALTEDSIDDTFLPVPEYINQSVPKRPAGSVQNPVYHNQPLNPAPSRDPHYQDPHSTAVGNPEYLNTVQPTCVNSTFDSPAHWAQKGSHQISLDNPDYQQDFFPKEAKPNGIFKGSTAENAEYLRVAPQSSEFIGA
T1 sequence (Q06187 whole entry C481S): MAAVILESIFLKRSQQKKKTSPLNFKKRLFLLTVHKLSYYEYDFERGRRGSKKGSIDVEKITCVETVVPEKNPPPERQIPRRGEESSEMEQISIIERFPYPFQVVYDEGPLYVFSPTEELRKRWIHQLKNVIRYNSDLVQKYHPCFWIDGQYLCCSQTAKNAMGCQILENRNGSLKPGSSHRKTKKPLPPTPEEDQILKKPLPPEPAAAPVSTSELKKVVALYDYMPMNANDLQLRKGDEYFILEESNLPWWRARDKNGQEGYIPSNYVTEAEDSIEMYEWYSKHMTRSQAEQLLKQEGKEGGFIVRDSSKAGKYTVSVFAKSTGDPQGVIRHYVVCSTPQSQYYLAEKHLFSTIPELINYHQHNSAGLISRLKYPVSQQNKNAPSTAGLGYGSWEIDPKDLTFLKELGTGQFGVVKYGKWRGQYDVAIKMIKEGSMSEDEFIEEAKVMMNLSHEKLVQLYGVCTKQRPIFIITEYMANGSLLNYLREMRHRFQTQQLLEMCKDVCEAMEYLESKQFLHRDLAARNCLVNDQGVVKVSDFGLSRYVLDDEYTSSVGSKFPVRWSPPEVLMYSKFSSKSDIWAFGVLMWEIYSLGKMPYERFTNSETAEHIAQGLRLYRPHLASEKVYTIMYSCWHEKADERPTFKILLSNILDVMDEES
T2 sequence (Q06187 whole entry): as the sequence (Q06187 whole entry C481S) above, with S481C counted along it

SMILES | pIC50 [1] | pIC50 [2] | pIC50 (Recombinant EGFR) | pIC50 [3]
COc1ccc(F)cc1C(=O)NCc1cc(F)c(-c2nn(C3CCOC3)c(N)c2C(N)=O)cc1F (stereo not shown) [Example 153, 5-amino-3-[2,5-difluoro-4-[[(5-fluoro-2-methoxy-benzoyl)amino]methyl]phenyl]-1-tetrahydrofuran-3-yl-pyrazole-4-carboxamide] | > 8.00 | 7.00 to 8.00 | < 5.00 | 6.00 to 7.00
COc1ccccc1C(=O)NCc1ccc(-c2nn(C3CCCC3)c(N)c2C(N)=O)c(F)c1F [Example 155, 5-amino-1-cyclopentyl-3-[2,3-difluoro-4-[[(2-methoxybenzoyl)amino]methyl]phenyl]pyrazole-4-carboxamide] | > 8.00 | > 8.00 | 5.00 to 6.00 | 7.00 to 8.00
COc1ccccc1C(=O)NCc1ccc(-c2nn(C3CCCOC3)c(N)c2C(N)=O)c(F)c1F (stereo not shown) [Example 157, 5-amino-3-[2,3-difluoro-4-[[(2-methoxybenzoyl)amino]methyl]phenyl]-1-tetrahydropyran-3-yl-pyrazole-4-carboxamide] | > 8.00 | > 8.00 | < 5.00 | 7.00 to 8.00
COc1ccc(F)cc1C(=O)NCc1c(F)cc(-c2nn(C3CCCOC3)c(N)c2C(N)=O)cc1F (stereo not shown) [Example 158, 5-amino-3-[3,5-difluoro-4-[[(5-fluoro-2-methoxy-benzoyl)amino]methyl]phenyl]-1-tetrahydropyran-3-yl-pyrazole-4-carboxamide] | 7.00 to 8.00 | 7.00 to 8.00 | < 5.00 | 6.00 to 7.00
COc1ccccc1C(=O)NCc1ccc(-c2nn(C3CNCC3(F)F)c(N)c2C(N)=O)cc1F (stereo not shown) [Example 160, 5-amino-1-(4,4-difluoropyrrolidin-3-yl)-3-[3-fluoro-4-[[(2-methoxybenzoyl)amino]methyl]phenyl]pyrazole-4-carboxamide] | > 8.00 | 7.00 to 8.00 | 5.00 to 6.00 | 6.00 to 7.00

Other lines, results leading:

pIC50 [1] | pIC50 [2] | pIC50 (Recombinant EGFR) | pIC50 [3] | SMILES
> 8.00 | > 8.00 | < 5.00 | 7.00 to 8.00 | COc1ccc(F)cc1C(=O)NCc1ccc(-c2nn(C3CCCC3)c(N)c2C(N)=O)c(F)c1F [Example 154, 5-amino-1-cyclopentyl-3-[2,3-difluoro-4-[[(5-fluoro-2-methoxy-benzoyl)amino]methyl]phenyl]pyrazole-4-carboxamide]
> 8.00 | > 8.00 | < 5.00 | 7.00 to 8.00 | COc1ccccc1C(=O)NCc1cc(F)c(-c2nn(C3CCCC3)c(N)c2C(N)=O)cc1F [Example 156, 5-amino-1-cyclopentyl-3-[2,5-difluoro-4-[[(2-methoxybenzoyl)amino]methyl]phenyl]pyrazole-4-carboxamide]
> 8.00 | > 8.00 | < 5.00 | 7.00 to 8.00 | COc1ccc(F)cc1C(=O)NCc1ccc(-c2nn(C3CCCOC3)c(N)c2C(N)=O)c(F)c1F (stereo not shown) [Example 159, 5-amino-3-[2,3-difluoro-4-[[(5-fluoro-2-methoxy-benzoyl)amino]methyl]phenyl]-1-tetrahydropyran-3-yl-pyrazole-4-carboxamide]
> 8.00 | 7.00 to 8.00 | < 5.00 | 6.00 to 7.00 | COc1ccc(F)cc1C(=O)NCc1ccc(-c2nn(C(C)C3CCOCC3)c(N)c2C(N)=O)cc1 (stereo not shown) [Example 161, 5-amino-3-[4-[[(5-fluoro-2-methoxy-benzoyl)amino]methyl]phenyl]-1-(1-tetrahydropyran-4-ylethyl)pyrazole-4-carboxamide]
> 8.00 | > 8.00 | 5.00 to 6.00 | 7.00 to 8.00 | COc1ccc(F)cc1C(=O)NCc1ccc(-c2nn([C@H]3CCOC3)c(N)c2C(N)=O)cc1 [Example 162, 5-amino-3-[4-[[(5-fluoro-2-methoxy-benzoyl)amino]methyl]phenyl]-1-[(3S)-tetrahydrofuran-3-yl]pyrazole-4-carboxamide]
